Measurements: patent US20160017054A1, “Spermidine/Spermine N1 - Acetyltransferase Antibodies As Anti-Cancer Drug Compounds” (BIOMARK TECHNOLOGIES INC., priority 2013, published 2016)

Test system: human tumor cell lines U2-OS, HeLa, Malme-3M, PC-3 and HEK293
Assay: Relative cell viability (percent confluency) during incubation with spermidine
Assay type: cell-based
Details: spermidine 22 μM to 550 μM

NCCCCNCCCN [spermidine, Spermidine]
relative cell viability, expressed as percent confluency (SSAT non-expressing cell lines (U2-OS and HeLa)): highest | relative cell viability, expressed as percent confluency (SSAT over-expressing cell lines (Malme-M3 and PC-3)): lowest
